Source: PubChem BioAssay AID248 (DTP/NCI, 2004)
Several values for one entry are separate records, joined by “and”; a condition that tells them apart may be missing. Equal values may be shown once. Inconclusive results and toxic doses are left out. No stated cut-off is given here; in the data, active means T/C of 150% or more; inactive means T/C below 125%.

System: L1210 leukemia ip in BDF1 mice, survival T/C
Assay: NCI In Vivo Anticancer Drug Screen. Data for tumor model L1210 Leukemia (intraperitoneal) in B6D2F1 (BDF1) mice
Conditions: higher = longer survival
Method in brief: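 Transplantable tumor model; survival measured in treated vs vehicle control mice. Value = treated/control.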

[1] = endpoint: mean survival time, dose: 75.0 mg/kg/injection, schedule: Q01DX001 (ip), vehicle: saline
[2] = endpoint: mean survival time, dose: 25.0 mg/kg/injection, schedule: Q04DX003 (ip), vehicle: Klucel (hydroxypropylcellulose) (HPC)
[3] = endpoint: mean survival time, dose: 50.0 mg/kg/injection, schedule: Q04DX003 (ip), vehicle: Klucel (hydroxypropylcellulose) (HPC)
[4] = endpoint: mean survival time, dose: 100.0 mg/kg/injection, schedule: Q01DX001 (ip), vehicle: Klucel (hydroxypropylcellulose) (HPC)
[5] = endpoint: mean survival time, dose: 100.0 mg/kg/injection, schedule: Q04DX003 (ip), vehicle: Klucel (hydroxypropylcellulose) (HPC)
[6] = endpoint: mean survival time, dose: 200.0 mg/kg/injection, schedule: Q01DX001 (ip), vehicle: Klucel (hydroxypropylcellulose) (HPC)
[7] = endpoint: mean survival time, dose: 100.0 mg/kg/injection, schedule: Q04DX003 (ip), vehicle: saline
[8] = endpoint: mean survival time, dose: 200.0 mg/kg/injection, schedule: Q04DX003 (ip), vehicle: saline
[9] = endpoint: mean survival time, dose: 400.0 mg/kg/injection, schedule: Q04DX003 (ip), vehicle: saline
[10] = endpoint: mean survival time, dose: 100.0 mg/kg/injection, schedule: Q01DX009 (ip), vehicle: Klucel (hydroxypropylcellulose) (HPC)
[11] = endpoint: mean survival time, dose: 200.0 mg/kg/injection, schedule: Q01DX009 (ip), vehicle: Klucel (hydroxypropylcellulose) (HPC)
[12] = endpoint: mean survival time, dose: 200.0 mg/kg/injection, schedule: Q04DX003 (ip), vehicle: Klucel (hydroxypropylcellulose) (HPC)
[13] = endpoint: mean survival time, dose: 400.0 mg/kg/injection, schedule: Q01DX009 (ip), vehicle: Klucel (hydroxypropylcellulose) (HPC)
[14] = endpoint: mean survival time, dose: 400.0 mg/kg/injection, schedule: Q04DX003 (ip), vehicle: Klucel (hydroxypropylcellulose) (HPC)
[15] = endpoint: mean survival time, dose: 100.0 mg/kg/injection, schedule: Q01DX001 (ip), vehicle: saline
[16] = endpoint: mean survival time, dose: 200.0 mg/kg/injection, schedule: Q01DX001 (ip), vehicle: saline
[17] = endpoint: mean survival time, dose: 400.0 mg/kg/injection, schedule: Q01DX001 (ip), vehicle: saline

Measured: T/C

N/N=C1\CC(=O)NC(=O)N1
inactive: [1] 90 % of control | endpoint: mean survival time, dose: 150.0 mg/kg/injection, schedule: Q01DX001 (ip), vehicle: saline 96 % of control

COc1ccccc1N=Nc1c(O)n(-c2ccccc2C)c(=S)n(-c2ccccc2OC)c1=O
inactive: [2] 98 % of control | [3] 98 % of control | [4] 109 % of control | [5] 91 % of control | [6] 98 % of control

O=C(O)CCC(=O)Nc1cccc(Oc2ccc([N+](=O)[O-])cc2[N+](=O)[O-])c1
inactive: [7] 106 % of control | [8] 98 % of control | [9] 97 % of control

O=c1cc(O)nc[nH]1
inactive: endpoint: mean survival time, dose: 220.0 mg/kg/injection, schedule: Q01DX Z (oral), vehicle: methylcellulose (MC) 105 % of control | endpoint: mean survival time, dose: 330.0 mg/kg/injection, schedule: Q01DX Z (oral), vehicle: methylcellulose (MC) 100 % of control | endpoint: mean survival time, dose: 500.0 mg/kg/injection, schedule: Q01DX Z (oral), vehicle: methylcellulose (MC) 95 % of control

COc1ccc(Cl)cc1NC(=O)Nc1ccc(Cl)c(Cl)c1
inactive: [10] 95 % of control | [5] 112 % of control | [11] 92 % of control | [12] 89 % of control | [13] 102 % of control | [14] 109 % of control

Brc1ccccc1Nn1c2ccccc2c2ccccc21
inactive: [10] 103 % of control | [11] 95 % of control | [13] 103 % of control

CCC[N+](C)(C)CC[N+](C)(C)CCC
inactive: [15] 99 % of control | [16] 103 % of control | [17] 101 % of control

CN=NC(=O)c1cccc2c1-c1ccccc1C2=O
inactive: endpoint: mean survival time, dose: 100.0 mg/kg/injection, schedule: Q01DX001 (ip), vehicle: other 87 % of control | endpoint: mean survival time, dose: 200.0 mg/kg/injection, schedule: Q01DX001 (ip), vehicle: other 96 % of control | endpoint: mean survival time, dose: 400.0 mg/kg/injection, schedule: Q01DX001 (ip), vehicle: other 93 % of control

Nc1nc(N)nc(CCCCCCc2nc(N)nc(N)n2)n1
inactive: endpoint: mean survival time, dose: 50.0 mg/kg/injection, schedule: Q01DX001 (ip), vehicle: carboxymethylcellulose (CMC) 88 % of control | endpoint: mean survival time, dose: 100.0 mg/kg/injection, schedule: Q01DX001 (ip), vehicle: carboxymethylcellulose (CMC) 88 % of control | endpoint: mean survival time, dose: 200.0 mg/kg/injection, schedule: Q01DX001 (ip), vehicle: carboxymethylcellulose (CMC) 98 % of control

C[P+](Cc1ccc([N+](=O)[O-])cc1)(c1ccccc1)c1ccccc1
inactive: endpoint: mean survival time, dose: 12.5 mg/kg/injection, schedule: Q01DX009 (ip), vehicle: Klucel (hydroxypropylcellulose) (HPC) 99 % of control | endpoint: mean survival time, dose: 12.5 mg/kg/injection, schedule: Q04DX003 (ip), vehicle: Klucel (hydroxypropylcellulose) (HPC) 100 % of control | endpoint: mean survival time, dose: 25.0 mg/kg/injection, schedule: Q01DX009 (ip), vehicle: Klucel (hydroxypropylcellulose) (HPC) 90 % of control | [2] 86 % of control | [3] 96 % of control

CC(=O)OC1COC(Cl)C(OC(C)=O)C1OC(C)=O (centres undefined)
inactive: endpoint: mean survival time, dose: 100.0 mg/kg/injection, schedule: Q01DX001 (sc), vehicle: olive oil, sesame oil, peanut oil 103 % of control | endpoint: mean survival time, dose: 200.0 mg/kg/injection, schedule: Q01DX001 (sc), vehicle: olive oil, sesame oil, peanut oil 97 % of control | endpoint: mean survival time, dose: 400.0 mg/kg/injection, schedule: Q01DX001 (sc), vehicle: olive oil, sesame oil, peanut oil 97 % of control

CCN(CC)CCCC(C)Nc1cc(C)nc(Nc2nc3cc(Cl)c(Cl)cc3[nH]2)n1 (centres undefined)
inactive: endpoint: mean survival time, dose: 5.0 mg/kg/injection, schedule: Q01DX009 (ip), vehicle: saline with Tween-80 96 % of control | endpoint: mean survival time, dose: 10.0 mg/kg/injection, schedule: Q01DX009 (ip), vehicle: saline with Tween-80 93 % of control

NC(=O)c1cccc[n+]1Cc1cc(=O)[nH]c(=O)[nH]1
inactive: [7] 93 % of control | [8] 101 % of control | [9] 89 % of control

COc1ccc(C23CCCC(=O)C2C2C(=O)CCCC23c2ccc(OC)cc2)cc1 (centres undefined)
inactive: [4] 100 % of control | [5] 100 % of control | [6] 97 % of control | [12] 101 % of control | endpoint: mean survival time, dose: 400.0 mg/kg/injection, schedule: Q01DX001 (ip), vehicle: Klucel (hydroxypropylcellulose) (HPC) 100 % of control | [14] 95 % of control

COc1cccc2c1C(=O)c1c(O)c3c(c(O)c1C2=O)CC(O)(C(C)=O)CC3OC1OC(COC(C)=O)C(OC(C)=O)C(OC(C)=O)C1NC(=O)C(F)(F)F (centres undefined)
inactive: endpoint: mean survival time, dose: 0.63 mg/kg/injection, schedule: Q01DX009 (ip), vehicle: Klucel (hydroxypropylcellulose) (HPC) 98 % of control | endpoint: mean survival time, dose: 1.25 mg/kg/injection, schedule: Q01DX009 (ip), vehicle: Klucel (hydroxypropylcellulose) (HPC) 91 % of control | endpoint: mean survival time, dose: 2.5 mg/kg/injection, schedule: Q01DX009 (ip), vehicle: Klucel (hydroxypropylcellulose) (HPC) 94 % of control | endpoint: mean survival time, dose: 5.0 mg/kg/injection, schedule: Q01DX009 (ip), vehicle: Klucel (hydroxypropylcellulose) (HPC) 97 % of control | endpoint: mean survival time, dose: 10.0 mg/kg/injection, schedule: Q01DX009 (ip), vehicle: Klucel (hydroxypropylcellulose) (HPC) 97 % of control

CC(=O)NC(CS)C(=O)O (centres undefined)
inactive: [15] 96 % of control | [16] 95 % of control | [17] 98 % of control | endpoint: median survival time, dose: 250.0 mg/kg/injection, schedule: Q01DX001 (ip), vehicle: saline 100 % of control | endpoint: median survival time, dose: 500.0 mg/kg/injection, schedule: Q01DX001 (ip), vehicle: none 101 % of control | endpoint: median survival time, dose: 750.0 mg/kg/injection, schedule: Q01DX001 (ip), vehicle: none 99 % of control | endpoint: median survival time, dose: 750.0 mg/kg/injection, schedule: Q01DX001 (ip), vehicle: saline 100 % of control | endpoint: median survival time, dose: 1000.0 mg/kg/injection, schedule: Q01DX001 (ip), vehicle: none 97 % of control and 106 % of control | endpoint: median survival time, dose: 1000.0 mg/kg/injection, schedule: Q01DX009 (ip), vehicle: saline 93 % of control | endpoint: median survival time, dose: 1000.0 mg/kg/injection, schedule: Q01DX014 (ip), vehicle: saline 100 % of control and 102 % of control | endpoint: median survival time, dose: 1000.0 mg/kg/injection, schedule: Q07DX003 (ip), vehicle: saline 94 % of control | endpoint: median survival time, dose: 1500.0 mg/kg/injection, schedule: Q01DX001 (ip), vehicle: none 113 % of control | endpoint: median survival time, dose: 1500.0 mg/kg/injection, schedule: Q01DX009 (ip), vehicle: saline 96 % of control | endpoint: median survival time, dose: 1500.0 mg/kg/injection, schedule: Q01DX014 (ip), vehicle: saline 102 % of control and 105 % of control | endpoint: median survival time, dose: 1500.0 mg/kg/injection, schedule: Q07DX003 (ip), vehicle: saline 94 % of control | endpoint: median survival time, dose: 2000.0 mg/kg/injection, schedule: Q01DX001 (ip), vehicle: saline 100 % of control

COc1cc2c(cc1OC)C(=O)N(C)CC2
inactive: endpoint: mean survival time, dose: 100.0 mg/kg/injection, schedule: Q01DX009 (ip), vehicle: water 95 % of control | endpoint: mean survival time, dose: 100.0 mg/kg/injection, schedule: Q04DX003 (ip), vehicle: water 97 % of control | endpoint: mean survival time, dose: 200.0 mg/kg/injection, schedule: Q01DX009 (ip), vehicle: water 102 % of control | endpoint: mean survival time, dose: 200.0 mg/kg/injection, schedule: Q04DX003 (ip), vehicle: water 97 % of control | endpoint: mean survival time, dose: 400.0 mg/kg/injection, schedule: Q04DX003 (ip), vehicle: water 100 % of control

COc1cc2c(cc1[N+](=O)[O-])OCO2
inactive: endpoint: mean survival time, dose: 100.0 mg/kg/injection, schedule: Q04DX003 (ip), vehicle: saline with Tween-80 104 % of control | endpoint: mean survival time, dose: 200.0 mg/kg/injection, schedule: Q04DX003 (ip), vehicle: saline with Tween-80 97 % of control | endpoint: mean survival time, dose: 400.0 mg/kg/injection, schedule: Q04DX003 (ip), vehicle: saline with Tween-80 98 % of control

CCN(C(=O)c1ccc(Cl)cc1Cl)c1ccccc1C
inactive: [10] 98 % of control | [5] 97 % of control | [11] 96 % of control | [12] 108 % of control | [13] 101 % of control | [14] 98 % of control

O=C(O)c1cc(S(=O)(=O)Cl)cc(S(=O)(=O)Cl)c1
inactive: [1] 107 % of control

c1cc[c]([Sn]([c]2ccccc2)([c]2ccccc2)[n]2cnc3cncnc32)cc1
inactive: endpoint: mean survival time, dose: 5.0 mg/kg/injection, schedule: Q01DX001 (ip), vehicle: other 111 % of control | endpoint: mean survival time, dose: 10.0 mg/kg/injection, schedule: Q01DX001 (ip), vehicle: other 100 % of control

COc1ccc(/C=C(\C#N)c2ccc(OC)cc2)cc1
inactive: [10] 96 % of control | [5] 98 % of control | [11] 101 % of control | [12] 91 % of control | [13] 96 % of control | [14] 93 % of control
